Results taken from ChEMBL document CHEMBL2029277, “Discovery of XL413, a potent and selective CDC7 inhibitor” (Bioorg Med Chem Lett, 2012).
Values belong to the compound of their own block, whether it stands above or below them.

What was measured:
Mus musculus [1] = experiment: Toxicity in athymic nude mouse bearing human Caco2 cells assessed as decrease in body weight at 3 mg/kg, po QD administered for 14 days; assay type: organism-based, Caco-2; design: dose 3 mg/kg, route oral; scale not given: the % may be the effect or the level left; conditions: in vivo, 336 h
Caco-2 [2] = experiment: Antitumor activity against human Caco2 cells xenografted in athymic nude mouse assessed as tumor growth inhibition at 10 mg/kg, po QD administered for 14 days; assay type: functional; conditions: Caco-2, 336 h, read-out: GI
[3] = target: T1, Cell division cycle 7-related protein kinase (Homo sapiens, UniProt O00311); experiment: Inhibition of N-terminus Myc-tagged human CDC7 expressed in Escherichia coli by chemiluminescence assay in presence of ATP
T1 sequence (O00311 whole entry): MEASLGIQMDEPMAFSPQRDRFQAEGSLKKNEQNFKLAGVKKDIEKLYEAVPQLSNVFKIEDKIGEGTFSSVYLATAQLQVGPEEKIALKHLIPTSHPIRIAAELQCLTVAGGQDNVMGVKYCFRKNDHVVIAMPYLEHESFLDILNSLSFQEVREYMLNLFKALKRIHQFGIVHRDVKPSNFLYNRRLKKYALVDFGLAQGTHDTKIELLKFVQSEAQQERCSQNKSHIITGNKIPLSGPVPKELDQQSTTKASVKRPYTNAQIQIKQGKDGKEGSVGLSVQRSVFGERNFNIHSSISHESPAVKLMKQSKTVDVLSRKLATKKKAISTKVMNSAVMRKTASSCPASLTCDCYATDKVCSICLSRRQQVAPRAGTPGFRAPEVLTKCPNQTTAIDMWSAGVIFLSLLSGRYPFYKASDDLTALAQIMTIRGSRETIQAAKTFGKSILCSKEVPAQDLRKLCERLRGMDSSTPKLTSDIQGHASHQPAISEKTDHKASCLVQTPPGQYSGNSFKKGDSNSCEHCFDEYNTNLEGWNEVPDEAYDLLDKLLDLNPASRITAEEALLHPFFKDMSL

Caco-2 [4] = experiment: Antitumor activity against human Caco2 cells xenografted in athymic nude mouse assessed as tumor growth inhibition at 3 mg/kg, po QD administered for 14 days; assay type: functional; conditions: Caco-2, 336 h, read-out: GI
Caco-2 [5] = experiment: Antiproliferative activity against human Caco2 cells after 3 days by BrdU incorporation assay; assay type: functional, cell-based; conditions: Caco-2, 72 h
[6] = target: Serine/threonine-protein kinase pim-1 (Homo sapiens, UniProt P11309); experiment: Inhibition of N-terminus His-tagged human PIM1 expressed in Escherichia coli using AKRRRLSA as substrate after 1 to 2 hrs by chemiluminescence assay
Chain of Serine/threonine-protein kinase pim-1 (P11309 whole entry): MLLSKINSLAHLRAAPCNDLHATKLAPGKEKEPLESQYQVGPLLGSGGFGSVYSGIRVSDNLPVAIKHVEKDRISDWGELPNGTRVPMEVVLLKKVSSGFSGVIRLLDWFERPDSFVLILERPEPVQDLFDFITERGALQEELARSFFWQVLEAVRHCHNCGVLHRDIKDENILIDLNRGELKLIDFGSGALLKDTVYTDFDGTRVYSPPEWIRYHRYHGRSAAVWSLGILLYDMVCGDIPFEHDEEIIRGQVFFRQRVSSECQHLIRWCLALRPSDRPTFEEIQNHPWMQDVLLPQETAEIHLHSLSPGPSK

Cytochrome P450 2C9 = Cytochrome P450 2C9 (Homo sapiens, UniProt P11712); experiment: Inhibition of CYP2C9; assay type: ADME
Chain of Cytochrome P450 2C9 (P11712 whole entry): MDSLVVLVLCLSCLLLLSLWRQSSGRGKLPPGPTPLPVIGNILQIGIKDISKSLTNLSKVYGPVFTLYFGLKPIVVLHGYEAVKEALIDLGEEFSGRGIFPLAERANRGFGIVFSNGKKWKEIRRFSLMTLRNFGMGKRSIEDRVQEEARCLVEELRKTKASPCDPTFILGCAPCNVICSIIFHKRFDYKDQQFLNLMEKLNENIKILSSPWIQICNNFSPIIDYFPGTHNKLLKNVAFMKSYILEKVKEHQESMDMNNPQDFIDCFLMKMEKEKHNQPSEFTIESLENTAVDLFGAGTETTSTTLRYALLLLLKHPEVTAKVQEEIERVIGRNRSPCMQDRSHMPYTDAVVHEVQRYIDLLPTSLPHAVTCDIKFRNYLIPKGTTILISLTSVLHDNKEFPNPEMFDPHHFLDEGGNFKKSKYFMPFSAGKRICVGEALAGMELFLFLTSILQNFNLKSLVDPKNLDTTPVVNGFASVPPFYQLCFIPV

[7] = Clearance in rat; assay type: ADME, organism-based; conditions: in vivo
Mus musculus [8] = experiment: Toxicity in athymic nude mouse bearing human Caco2 cells assessed as decrease in body weight at 100 mg/kg, po QD administered for 14 days; assay type: organism-based, Caco-2; design: dose 100 mg/kg, route oral; scale not given: the % may be the effect or the level left; conditions: in vivo, 336 h
[9] = Plasma concentration in mouse at 100 mg/kg, po measured after 4 hrs; assay type: ADME, organism-based; design: dose 100 mg/kg, route oral
Cytochrome P450 2C19 = Cytochrome P450 2C19 (Homo sapiens, UniProt P33261); experiment: Inhibition of CYP2C19; assay type: ADME
Chain of Cytochrome P450 2C19 (P33261 whole entry): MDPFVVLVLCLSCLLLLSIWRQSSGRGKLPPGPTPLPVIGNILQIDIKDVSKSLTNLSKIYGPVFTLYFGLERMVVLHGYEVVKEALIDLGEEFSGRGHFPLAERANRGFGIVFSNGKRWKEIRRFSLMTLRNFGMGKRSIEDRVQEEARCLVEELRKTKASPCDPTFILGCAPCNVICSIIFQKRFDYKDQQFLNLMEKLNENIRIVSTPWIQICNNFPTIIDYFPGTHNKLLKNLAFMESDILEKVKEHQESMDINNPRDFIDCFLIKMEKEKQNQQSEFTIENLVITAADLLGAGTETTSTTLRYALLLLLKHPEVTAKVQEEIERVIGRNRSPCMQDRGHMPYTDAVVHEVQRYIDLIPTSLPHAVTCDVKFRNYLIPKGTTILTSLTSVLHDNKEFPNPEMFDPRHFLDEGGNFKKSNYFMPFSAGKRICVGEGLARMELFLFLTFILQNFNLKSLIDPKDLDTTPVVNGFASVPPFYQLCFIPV

Mus musculus [10] = experiment: Toxicity in athymic nude mouse bearing human Caco2 cells assessed as decrease in body weight at 100 mg/kg, po Q2D administered for 14 days; assay type: organism-based, Caco-2; design: dose 100 mg/kg, route oral; scale not given: the % may be the effect or the level left; conditions: in vivo, 336 h
[11] = target: T1, Cell division cycle 7-related protein kinase; experiment: Inhibition of CDC7 in human Caco2 cells assessed as inhibition of MCM2 phosphorylation at Ser53 after 4 hrs; assay type: cell-based, Caco-2
Caco-2 [12] = experiment: Antitumor activity against human Caco2 cells xenografted in athymic nude mouse assessed as tumor regression at 100 mg/kg, po Q2D administered for 14 days; assay type: functional
[13] = Plasma concentration in athymic nude mouse bearing human Caco2 cells at 30 mg/kg, po measured after 4 hrs; assay type: ADME, organism-based, Caco-2; design: dose 30 mg/kg, route oral
Caco-2 [14] = experiment: Antiproliferative activity against human Caco2 cells assessed as inhibition of anchorage-independent growth in soft agar; assay type: functional, cell-based
[15] = target: Casein kinase II alpha/beta (Homo sapiens, UniProt P68400); experiment: Inhibition of human tertrameric CK2alphabeta holoenzyme using casein as substrate after 1 to 2 hrs by chemiluminescence assay in presence of 2 uM ATP; assay type: protein-complex assay
Chain of Casein kinase II alpha/beta (P67870 whole entry): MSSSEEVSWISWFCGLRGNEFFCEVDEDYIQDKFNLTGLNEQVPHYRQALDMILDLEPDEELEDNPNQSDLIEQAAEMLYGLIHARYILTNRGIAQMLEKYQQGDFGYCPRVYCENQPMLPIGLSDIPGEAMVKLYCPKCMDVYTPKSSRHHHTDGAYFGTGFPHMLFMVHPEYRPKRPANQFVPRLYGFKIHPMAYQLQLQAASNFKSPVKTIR
Chain of Casein kinase II alpha/beta (P68400 whole entry): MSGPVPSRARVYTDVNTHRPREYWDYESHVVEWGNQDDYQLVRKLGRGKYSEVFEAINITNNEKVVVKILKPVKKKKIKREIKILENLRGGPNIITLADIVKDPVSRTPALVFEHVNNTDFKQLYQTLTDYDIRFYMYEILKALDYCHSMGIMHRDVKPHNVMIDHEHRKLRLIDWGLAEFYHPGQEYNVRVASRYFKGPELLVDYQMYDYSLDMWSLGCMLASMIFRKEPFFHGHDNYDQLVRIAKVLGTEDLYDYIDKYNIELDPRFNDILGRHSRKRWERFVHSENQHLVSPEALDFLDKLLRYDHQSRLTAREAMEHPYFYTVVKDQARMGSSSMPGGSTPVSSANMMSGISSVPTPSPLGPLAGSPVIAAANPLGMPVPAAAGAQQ

[16] = Drug uptake in tumor of Caco2 cells xenografted athymic nude mouse at 10 mg/kg, po measured after 4 hrs; assay type: ADME, organism-based, Neoplasm, Caco-2; design: dose 10 mg/kg, route oral; conditions: read-out: Drug uptake
[17] = Plasma concentration in athymic nude mouse bearing human Caco2 cells at 10 mg/kg, po measured after 4 hrs; assay type: ADME, organism-based, Caco-2; design: dose 10 mg/kg, route oral
[18] = Drug uptake in tumor of Caco2 cells xenografted athymic nude mouse at 100 mg/kg, po measured after 4 hrs; assay type: ADME, organism-based, Neoplasm, Caco-2; design: dose 100 mg/kg, route oral; conditions: read-out: Drug uptake
Caco-2 [19] = experiment: Antitumor activity against human Caco2 cells xenografted in athymic nude mouse assessed as tumor regression at 100 mg/kg, po QD administered for 14 days; assay type: functional
Caco-2 [20] = experiment: Antitumor activity against human Caco2 cells xenografted in athymic nude mouse assessed as tumor growth inhibition at 30 mg/kg, po QD administered for 14 days; assay type: functional; conditions: Caco-2, 336 h, read-out: GI
[21] = Half life in rat; assay type: ADME, organism-based; conditions: in vivo
Mus musculus [22] = experiment: Toxicity in athymic nude mouse bearing human Caco2 cells assessed as decrease in body weight at 10 mg/kg, po QD administered for 14 days; assay type: organism-based, Caco-2; design: dose 10 mg/kg, route oral; scale not given: the % may be the effect or the level left; conditions: in vivo, 336 h
Caco-2 [23] = experiment: Antitumor activity against human Caco2 cells xenografted in athymic nude mouse assessed as tumor growth inhibition at 100 mg/kg, po QD administered for 14 days; assay type: functional; conditions: Caco-2, 336 h, read-out: GI
[24] = Oral bioavailability in rat at 3 mg/kg; assay type: ADME, organism-based; conditions: in vivo
Cytochrome P450 2D6 = Cytochrome P450 2D6 (Homo sapiens, UniProt P10635); experiment: Inhibition of CYP2D6; assay type: ADME
Chain of Cytochrome P450 2D6 (P10635 whole entry): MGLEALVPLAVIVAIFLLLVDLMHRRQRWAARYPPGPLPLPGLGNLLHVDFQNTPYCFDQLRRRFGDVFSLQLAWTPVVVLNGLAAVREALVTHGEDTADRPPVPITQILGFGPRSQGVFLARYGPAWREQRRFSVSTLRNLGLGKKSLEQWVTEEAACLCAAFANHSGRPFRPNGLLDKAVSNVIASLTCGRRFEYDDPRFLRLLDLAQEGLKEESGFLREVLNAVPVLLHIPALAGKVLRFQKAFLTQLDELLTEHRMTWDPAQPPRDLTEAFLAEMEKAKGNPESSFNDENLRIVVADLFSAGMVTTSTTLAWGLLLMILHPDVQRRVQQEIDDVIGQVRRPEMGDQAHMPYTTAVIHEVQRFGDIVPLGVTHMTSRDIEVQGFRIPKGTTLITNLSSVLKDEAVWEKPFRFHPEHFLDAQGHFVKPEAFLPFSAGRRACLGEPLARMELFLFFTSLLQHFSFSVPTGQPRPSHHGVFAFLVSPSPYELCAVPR

Mus musculus [25] = experiment: Toxicity in athymic nude mouse bearing human Caco2 cells assessed as decrease in body weight at 30 mg/kg, po BID administered for 14 days; assay type: organism-based, Caco-2; design: dose 30 mg/kg, route oral; scale not given: the % may be the effect or the level left; conditions: in vivo, 336 h
Mus musculus [26] = experiment: Toxicity in athymic nude mouse bearing human Caco2 cells assessed as decrease in body weight at 30 mg/kg, po QD administered for 14 days; assay type: organism-based, Caco-2; design: dose 30 mg/kg, route oral; scale not given: the % may be the effect or the level left; conditions: in vivo, 336 h
[27] = Plasma concentration in athymic nude mouse bearing human Caco2 cells at 100 mg/kg, po measured after 4 hrs; assay type: ADME, organism-based, Caco-2; design: dose 100 mg/kg, route oral
[28] = AUC in rat at 3 mg/kg, po; assay type: ADME, organism-based; design: dose 3 mg/kg, route oral; conditions: plasma
Mus musculus [29] = experiment: Inhibition of CDC7-mediated MCM2 phosphorylation at Ser40/41 in human Caco2 cells xenografted in athymic nude mouse at 3 mg/kg, po after 4 hrs by Western blot analysis; assay type: functional; conditions: Caco-2, 4 h
Caco-2 [30] = experiment: Antiproliferative activity against human Caco2 cells assessed as decrease in cell viability after 3 days by Cell Titer-Glo assay; assay type: functional, cell-based; conditions: Caco-2, 72 h
[31] = Drug uptake in tumor of Caco2 cells xenografted athymic nude mouse at 3 mg/kg, po measured after 4 hrs; assay type: ADME, organism-based, Neoplasm, Caco-2; design: dose 3 mg/kg, route oral; conditions: read-out: Drug uptake
[32] = Cmax in rat at 3 mg/kg, po; assay type: ADME, organism-based; design: dose 3 mg/kg, route oral; conditions: in vivo
[33] = Drug uptake in tumor of Caco2 cells xenografted athymic nude mouse at 30 mg/kg, po measured after 4 hrs; assay type: ADME, organism-based, Neoplasm, Caco-2; design: dose 30 mg/kg, route oral; conditions: read-out: Drug uptake
Caco-2 [34] = experiment: Antitumor activity against human Caco2 cells xenografted in athymic nude mouse assessed as tumor growth inhibition at 100 mg/kg, po Q2D administered for 14 days; assay type: functional; conditions: Caco-2, 336 h, read-out: GI
[35] = Plasma concentration in mouse at 100 mg/kg, po measured after 1 hr; assay type: ADME, organism-based; design: dose 100 mg/kg, route oral
Cytochrome P450 3A4 = Cytochrome P450 3A4 (Homo sapiens, UniProt P08684); experiment: Inhibition of CYP3A4; assay type: ADME
Chain of Cytochrome P450 3A4 (P08684 whole entry): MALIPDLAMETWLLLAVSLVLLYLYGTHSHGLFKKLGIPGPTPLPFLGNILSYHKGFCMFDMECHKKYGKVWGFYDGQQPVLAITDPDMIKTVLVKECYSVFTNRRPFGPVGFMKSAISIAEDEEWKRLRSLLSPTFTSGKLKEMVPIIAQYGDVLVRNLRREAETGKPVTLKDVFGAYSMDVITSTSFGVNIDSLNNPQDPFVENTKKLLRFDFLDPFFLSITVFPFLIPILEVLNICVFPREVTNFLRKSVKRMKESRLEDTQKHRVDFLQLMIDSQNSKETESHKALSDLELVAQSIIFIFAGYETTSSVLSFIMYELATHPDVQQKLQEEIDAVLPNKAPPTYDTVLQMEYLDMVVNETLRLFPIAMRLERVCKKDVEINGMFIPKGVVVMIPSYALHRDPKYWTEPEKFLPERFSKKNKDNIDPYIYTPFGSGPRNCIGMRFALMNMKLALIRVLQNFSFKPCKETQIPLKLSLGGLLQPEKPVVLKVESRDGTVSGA

Caco-2 [36] = experiment: Antitumor activity against human Caco2 cells xenografted in athymic nude mouse assessed as tumor growth inhibition at 30 mg/kg, po BID administered for 14 days; assay type: functional; conditions: Caco-2, 336 h, read-out: GI
Mus musculus [37] = experiment: Inhibition of CDC7-mediated MCM2 phosphorylation at Ser40/41 in human Caco2 cells xenografted in po dosed athymic nude mouse by after 4 hrs Western blot analysis; assay type: functional; conditions: Caco-2, po
Caco-2 [38] = experiment: Antitumor activity against human Caco2 cells xenografted in athymic nude mouse assessed as tumor regression at 30 mg/kg, po BID administered for 14 days; assay type: functional
Cytochrome P450 1A2 = target: T2, Cytochrome P450 1A2 (Homo sapiens, UniProt P05177); experiment: Inhibition of CYP1A2; assay type: ADME
T2 sequence (P05177 whole entry): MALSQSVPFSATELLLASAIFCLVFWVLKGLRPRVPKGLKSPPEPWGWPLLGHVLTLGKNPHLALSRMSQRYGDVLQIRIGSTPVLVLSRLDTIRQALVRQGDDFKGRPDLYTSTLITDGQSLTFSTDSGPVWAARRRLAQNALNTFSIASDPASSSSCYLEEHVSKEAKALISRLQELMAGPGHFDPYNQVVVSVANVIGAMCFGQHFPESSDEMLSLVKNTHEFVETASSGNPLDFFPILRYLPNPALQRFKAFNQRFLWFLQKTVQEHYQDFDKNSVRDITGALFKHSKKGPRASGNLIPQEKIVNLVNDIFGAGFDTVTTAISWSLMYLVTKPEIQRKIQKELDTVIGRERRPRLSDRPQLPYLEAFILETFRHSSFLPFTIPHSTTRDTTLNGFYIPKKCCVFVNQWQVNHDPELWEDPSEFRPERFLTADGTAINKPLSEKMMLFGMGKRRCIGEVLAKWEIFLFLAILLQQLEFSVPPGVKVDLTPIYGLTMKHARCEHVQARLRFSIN

[39] = target: T1, Cell division cycle 7-related protein kinase; experiment: Inhibition of CDC7 in human MDA-MB-231T cells assessed as inhibition of MCM2 phosphorylation at Ser53 after 4 hrs; assay type: cell-based
[40] = Plasma concentration in athymic nude mouse bearing human Caco2 cells at 3 mg/kg, po measured after 4 hrs; assay type: ADME, organism-based, Caco-2; design: dose 3 mg/kg, route oral
[41] = Volume of distribution at steady state in rat; assay type: ADME, organism-based; conditions: in vivo, read-out: Vdss
Caco-2 [42] = experiment: Induction of apoptosis in human Caco2 cells assessed as increase in caspase 3/7 activity; assay type: functional, cell-based

Structure (SMILES): O=c1[nH]c([C@@H]2CCCN2)nc2c1oc1ccc(Cl)cc12
Activity (Mus musculus [1]): 0.5%
inhibition in vivo at 10 mg/kg (Caco-2 [2]): 36%
IC50 [3]: 3.4 nM
inhibition in vivo at 3 mg/kg (Caco-2 [4]): 8.7%
IC50 (Caco-2 [5]): 2680 nM
IC50 [6]: 42 nM
IC50 (Cytochrome P450 2C9): > 50000 nM
clearance [7]: 1.95 mL/min/kg
Activity (Mus musculus [8]): 4.7%
concentration at 4 h [9]: 81 µM
IC50 (Cytochrome P450 2C19): > 50000 nM
Activity (Mus musculus [10]): 4.5%
IC50 [11]: 140 nM
Activity (Caco-2 [12]): 21%
concentration at 4 h [13]: 82.2 µM
IC50 (Caco-2 [14]): 715 nM
IC50 [15]: 215 nM
concentration at 4 h [16]: 13.1 µM
concentration at 4 h [17]: 40.1 µM
concentration at 4 h [18]: 71.4 µM
Activity (Caco-2 [19]): 70%
inhibition in vivo at 30 mg/kg (Caco-2 [20]): 83%
half-life [21]: 2.32 h
Activity (Mus musculus [22]): 3.4%
inhibition in vivo at 100 mg/kg (Caco-2 [23]): > 100%
bioavailability [24]: 95%
IC50 (Cytochrome P450 2D6): > 50000 nM
Activity (Mus musculus [25]): 6.4%
Activity (Mus musculus [26]): 8.3%
concentration at 4 h [27]: 186 µM
AUC [28]: 75 µM·h
inhibition in vivo at 3 mg/kg (Mus musculus [29]): 70%
IC50 (Caco-2 [30]): 2140 nM
concentration at 4 h [31]: 3.2 µM
Cmax [32]: 8.61 µM
concentration at 4 h [33]: 32.1 µM
inhibition in vivo at 100 mg/kg (Caco-2 [34]): > 100%
concentration at 1 h [35]: 141 µM
IC50 (Cytochrome P450 3A4): > 50000 nM
inhibition in vivo at 30 mg/kg (Caco-2 [36]): > 100%
ED50 (Mus musculus [37]): < 3 mg/kg
Activity (Caco-2 [38]): 32%
IC50 (Cytochrome P450 1A2): 6900 nM
IC50 [39]: 118 nM
concentration at 4 h [40]: 11 µM
Vd [41]: 0.55 L/kg
EC50 (Caco-2 [42]): 2290 nM

Structure (SMILES): Cc1cc(-c2cc(-c3ccccc3)nc(=O)[nH]2)ccc1O
concentration at 4 h [9]: 0.31 µM
concentration at 1 h [35]: 0.82 µM

Structure (SMILES): O=c1[nH]c([C@@H]2C[C@H](F)CN2)nc2c1oc1ccc(Br)cc12
IC50 [3]: 11 nM
IC50 [6]: 11 nM
IC50 [15]: 3620 nM
IC50 [39]: 566 nM

Other lines, results leading:

IC50 [3]: 9000 nM
Structure (SMILES): COc1ccc2oc3c(=O)[nH]c(CN4CC[C@H](O)C4)nc3c2c1

IC50 [3]: 1000 nM
concentration at 4 h [9]: 0.15 µM
concentration at 1 h [35]: 1.4 µM
Structure (SMILES): O=c1[nH]c(CN2CC[C@H](O)C2)nc2c1oc1cc(O)c(Br)cc12

IC50 [3]: 11 nM
IC50 [6]: 77 nM
IC50 [15]: 512 nM
IC50 [39]: 362 nM
Structure (SMILES): CO[C@H]1CCN(Cc2nc3c(oc4ccc(Br)cc43)c(=O)[nH]2)C1
